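All cell lines were grown in 96-well plates and treated with compound for 48 hours. The concentration for 50% growth inhibition is given as GI50.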 Activity calls are given as the source filed them. No stated cut-off is given here; in the data, active = GI50 up to about 1.1 µM and inactive = higher.
Legend:
Assay in all cases: NCI anticancer screen, dose series, 48 h
786-0 = tested on: 786-0
A549 = tested on: A549
ACHN = tested on: ACHN
BT-549 = tested on: BT-549
CAKI-1 = tested on: CAKI-1
CCRF-CEM = tested on: CCRF-CEM
COLO 205 = tested on: COLO 205
DU-145 = tested on: DU-145
EKVX = tested on: EKVX
HCC 2998 = tested on: HCC 2998
HCT-116 = tested on: HCT-116
HCT-15 = tested on: HCT-15
HL-60 = tested on: HL-60
HOP-62 = tested on: HOP-62
HOP-92 = tested on: HOP-92
HT-29 = tested on: HT-29
Hs-578T = tested on: Hs-578T
IGROV-1 = tested on: IGROV-1
K562 = tested on: K562
KM12 = tested on: KM12
LOX IMVI = tested on: LOX IMVI
M14 = tested on: M14
MCF7 = tested on: MCF7
MDA-MB-231 = tested on: MDA-MB-231
MDA-MB-435 = tested on: MDA-MB-435
MDA-N = tested on: MDA-N
MOLT-4 = tested on: MOLT-4
Malme-3M = tested on: Malme-3M
NCI-H226 = tested on: NCI-H226
NCI-H23 = tested on: NCI-H23
NCI-H460 = tested on: NCI-H460
NCI-H522 = tested on: NCI-H522
NCI/ADR-RES = tested on: NCI/ADR-RES
OVCAR-3 = tested on: OVCAR-3
OVCAR-4 = tested on: OVCAR-4
OVCAR-5 = tested on: OVCAR-5
OVCAR-8 = tested on: OVCAR-8
PC-3 = tested on: PC-3
RPMI-8226 = tested on: RPMI-8226
RXF 393 = tested on: RXF 393
SF-268 = tested on: SF-268
SF-295 = tested on: SF-295
SF-539 = tested on: SF-539
SK-MEL-28 = tested on: SK-MEL-28
SK-MEL-2 = tested on: SK-MEL-2
SK-MEL-5 = tested on: SK-MEL-5
SK-OV-3 = tested on: SK-OV-3
SN12C = tested on: SN12C
SNB-19 = tested on: SNB-19
SNB-75 = tested on: SNB-75
SR = tested on: SR
SW-620 = tested on: SW-620
T47D = tested on: T47D
TK-10 = tested on: TK-10
U-251 = tested on: U-251
UACC-257 = tested on: UACC-257
UACC-62 = tested on: UACC-62
UO-31 = tested on: UO-31

N=C(N)NS(=O)(=O)c1ccc(NC(=O)c2cccc3c(NNc4ccc(S(N)(=O)=O)cc4)c4ccccc4nc23)cc1
GI50 (786-0): 59.4 µM (inactive)
GI50 (A549): > 100 µM (inactive)
GI50 (ACHN): 66.5 µM (inactive)
GI50 (BT-549): 74.5 µM (inactive)
GI50 (CAKI-1): > 100 µM (inactive)
GI50 (CCRF-CEM): 34.5 µM (inactive)
GI50 (COLO 205): > 100 µM (inactive)
GI50 (DU-145): > 100 µM (inactive)
GI50 (EKVX): 47.4 µM (inactive)
GI50 (HCC 2998): > 100 µM (inactive)
GI50 (HCT-116): 53.8 µM (inactive)
GI50 (HCT-15): 38.9 µM
GI50 (HL-60): 30.6 µM (inactive)
GI50 (HOP-62): > 100 µM (inactive)
GI50 (HOP-92): 25.3 µM (inactive)
GI50 (HT-29): 47 µM (inactive)
GI50 (Hs-578T): 59.4 µM (inactive)
GI50 (IGROV-1): 55.5 µM (inactive)
GI50 (K562): 26.6 µM (inactive)
GI50 (KM12): 50.7 µM (inactive)
GI50 (LOX IMVI): 20.4 µM (inactive)
GI50 (M14): > 100 µM (inactive)
GI50 (MCF7): 26.4 µM (inactive)
GI50 (MDA-MB-231): 27.5 µM (inactive)
GI50 (MDA-MB-435): 51.6 µM (inactive)
GI50 (MDA-N): > 100 µM (inactive)
GI50 (MOLT-4): 28.2 µM (inactive)
GI50 (Malme-3M): 34.8 µM (inactive)
GI50 (NCI-H226): > 100 µM (inactive)
GI50 (NCI-H23): > 100 µM (inactive)
GI50 (NCI-H460): 83.4 µM (inactive)
GI50 (NCI-H522): 41.1 µM (inactive)
GI50 (NCI/ADR-RES): > 100 µM (inactive)
GI50 (OVCAR-3): 36.1 µM (inactive)
GI50 (OVCAR-4): > 100 µM (inactive)
GI50 (OVCAR-5): > 100 µM (inactive)
GI50 (OVCAR-8): 66.1 µM (inactive)
GI50 (PC-3): 59.7 µM (inactive)
GI50 (RPMI-8226): 39.6 µM (inactive)
GI50 (RXF 393): > 100 µM (inactive)
GI50 (SF-268): 73.5 µM (inactive)
GI50 (SF-295): > 100 µM (inactive)
GI50 (SF-539): > 100 µM (inactive)
GI50 (SK-MEL-28): > 100 µM (inactive)
GI50 (SK-MEL-2): > 100 µM (inactive)
GI50 (SK-MEL-5): 55.6 µM (inactive)
GI50 (SK-OV-3): > 100 µM (inactive)
GI50 (SN12C): 99.3 µM (inactive)
GI50 (SNB-19): > 100 µM (inactive)
GI50 (SNB-75): > 100 µM (inactive)
GI50 (SR): 35 µM (inactive)
GI50 (SW-620): 45.4 µM (inactive)
GI50 (T47D): 18.7 µM (inactive)
GI50 (TK-10): > 100 µM (inactive)
GI50 (U-251): 44.2 µM (inactive)
GI50 (UACC-257): > 100 µM (inactive)
GI50 (UACC-62): > 100 µM (inactive)
GI50 (UO-31): > 100 µM (inactive)

Reference: ChEMBL document CHEMBL1201862, “PubChem BioAssay data set” (2004)
